Measurements as given in PubChem BioAssay AID192 (DTP/NCI, 2004).
Where “and” joins values, the source holds several entries; their conditions need not be identical. Equal values may be shown once. Toxic doses and inconclusive results are not listed.

Tested on: BDF1 mice, B16 melanoma ip, median survival T/C
Experiment: NCI In Vivo Anticancer Drug Screen. Data for tumor model B16 Melanoma (intraperitoneal) in B6D2F1 (BDF1) mice
Conditions: endpoint: median survival time, higher = longer survival
In short: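 Values are ratios of treated (T) to vehicle-control (C) measurements of survival or tumor size in tumor-bearing mice.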

[1] = dose: 25.0 mg/kg/injection, schedule: Q01DX009 (ip), vehicle: suspension in saline
[2] = dose: 50.0 mg/kg/injection, schedule: Q01DX009 (ip), vehicle: suspension in saline
[3] = dose: 100.0 mg/kg/injection, schedule: Q01DX009 (ip), vehicle: suspension in saline
[4] = dose: 200.0 mg/kg/injection, schedule: Q01DX009 (ip), vehicle: suspension in saline
[5] = dose: 6.25 mg/kg/injection, schedule: Q01DX009 (ip), vehicle: saline with Tween-80
[6] = dose: 12.5 mg/kg/injection, schedule: Q01DX009 (ip), vehicle: saline with Tween-80
[7] = dose: 25.0 mg/kg/injection, schedule: Q01DX009 (ip), vehicle: saline with Tween-80
[8] = dose: 200.0 mg/kg/injection, schedule: Q01DX009 (ip), vehicle: saline with Tween-80
[9] = dose: 50.0 mg/kg/injection, schedule: Q01DX009 (ip), vehicle: saline
[10] = dose: 100.0 mg/kg/injection, schedule: Q01DX009 (ip), vehicle: saline
[11] = dose: 200.0 mg/kg/injection, schedule: Q01DX009 (ip), vehicle: saline
[12] = dose: 25.0 mg/kg/injection, schedule: Q01DX009 (ip), vehicle: Klucel (hydroxypropylcellulose) (HPC)
[13] = dose: 50.0 mg/kg/injection, schedule: Q01DX009 (ip), vehicle: Klucel (hydroxypropylcellulose) (HPC)
[14] = dose: 100.0 mg/kg/injection, schedule: Q01DX009 (ip), vehicle: Klucel (hydroxypropylcellulose) (HPC)
[15] = dose: 50.0 mg/kg/injection, schedule: Q01DX009 (ip), vehicle: saline with Tween-80
[16] = dose: 100.0 mg/kg/injection, schedule: Q01DX009 (ip), vehicle: saline with Tween-80
[17] = dose: 200.0 mg/kg/injection, schedule: Q01DX009 (ip), vehicle: Klucel (hydroxypropylcellulose) (HPC)
[18] = dose: 6.25 mg/kg/injection, schedule: Q01DX009 (ip), vehicle: saline
[19] = dose: 12.5 mg/kg/injection, schedule: Q01DX009 (ip), vehicle: saline
[20] = dose: 25.0 mg/kg/injection, schedule: Q01DX009 (ip), vehicle: saline

Nc1nc2nc[nH]c2c(=O)[nH]1
T/C [1]: 95 % of control
T/C [2]: 97 % of control
T/C [3]: 88 % of control
T/C [4]: 86 % of control

CCCCCCCCCCCCCCCCCCCCCC(=O)Nc1ccn(C2OC(CO)C(O)C2O)c(=O)n1 (stereo unspecified)
T/C [5]: 102 % of control
T/C [6]: 102 % of control
T/C [7]: 119 % of control
T/C [8]: 163 % of control

Cn1c(=O)c2c(ncn2C)n(C)c1=O
T/C [9]: 116 % of control
T/C [10]: 103 % of control
T/C [11]: 109 % of control

C[n+]1c2ccccc2cc2ccccc21
T/C (dose: 1.56 mg/kg/injection, schedule: Q01DX009 (ip), vehicle: saline with Tween-80): 97 % of control
T/C [5]: 90 % of control and 94 % of control

NC1(C(=O)O)CSSC1
T/C [12]: 95 % of control
T/C [13]: 100 % of control

Cc1c(NCO)c(=O)n(-c2ccccc2)n1C
T/C [10]: 102 % of control
T/C [11]: 94 % of control
T/C (dose: 400.0 mg/kg/injection, schedule: Q01DX009 (ip), vehicle: saline): 91 % of control

CCN(CC)Cc1ncccc1O
T/C [13]: 107 % of control
T/C [14]: 103 % of control

C=C(C)C12CC(COC(=O)c3ccccc3)C34OC5(OC1C3C1OC1(CO)C(O)C1(O)C(OC(=O)c3ccccc3)C(C)C(C(C)CCCCCCC5O)C14)O2 (stereo unspecified)
T/C (dose: 3.8 micrograms/kg/injection, schedule: Q01DX009 (ip), vehicle: saline with Tween-80): 93 % of control
T/C (dose: 7.5 micrograms/kg/injection, schedule: Q01DX009 (ip), vehicle: saline with Tween-80): 97 % of control

C#CC(C)(C)OCC(CCl)OC(N)=O (stereo unspecified)
T/C [6]: 91 % of control
T/C [7]: 100 % of control
T/C [15]: 104 % of control
T/C [16]: 93 % of control
T/C [8]: 95 % of control

CC1=CCC(C(C)C)C=C1 (stereo unspecified)
T/C [12]: 92 % of control
T/C [13]: 94 % of control
T/C [14]: 94 % of control
T/C [17]: 89 % of control

Cc1ccc(CO)cc1C
T/C (dose: 50.0 mg/kg/injection, schedule: Q04DX003 (ip), vehicle: saline with Tween-80): 100 % of control
T/C (dose: 100.0 mg/kg/injection, schedule: Q04DX003 (ip), vehicle: saline with Tween-80): 102 % of control
T/C (dose: 200.0 mg/kg/injection, schedule: Q04DX003 (ip), vehicle: saline with Tween-80): 104 % of control

CO[C@H]1Nc2c(ccc(C)c2O)C(=O)N2C=C(/C=C/C(N)=O)C[C@@H]12
T/C (dose: 0.05 mg/kg/injection, schedule: Q04DX003 (ip), vehicle: DMSO): 111 % of control
T/C (dose: 0.06 mg/kg/injection, schedule: Q01DX009 (ip), vehicle: saline with Tween-80): 92 % of control
T/C (dose: 0.1 mg/kg/injection, schedule: Q04DX003 (ip), vehicle: DMSO): 101 % of control
T/C (dose: 0.12 mg/kg/injection, schedule: Q01DX009 (ip), vehicle: saline with Tween-80): 94 % of control
T/C (dose: 0.2 mg/kg/injection, schedule: Q04DX003 (ip), vehicle: DMSO): 120 % of control
T/C (dose: 0.25 mg/kg/injection, schedule: Q01DX009 (ip), vehicle: saline with Tween-80): 97 % of control
T/C (dose: 0.4 mg/kg/injection, schedule: Q04DX003 (ip), vehicle: DMSO): 112 % of control
T/C (dose: 16.5 micrograms/kg/injection, schedule: Q01DX009 (ip), vehicle: saline + alcohol): 106 % of control
T/C (dose: 25.0 micrograms/kg/injection, schedule: Q01DX009 (ip), vehicle: saline with Tween-80): 100 % of control
T/C (dose: 25.0 micrograms/kg/injection, schedule: Q04DX003 (ip), vehicle: saline with Tween-80): 101 % of control
T/C (dose: 33.0 micrograms/kg/injection, schedule: Q01DX009 (ip), vehicle: saline + alcohol): 100 % of control
T/C (dose: 50.0 micrograms/kg/injection, schedule: Q01DX009 (ip), vehicle: saline with Tween-80): 104 % of control
T/C (dose: 50.0 micrograms/kg/injection, schedule: Q04DX003 (ip), vehicle: saline with Tween-80): 104 % of control
T/C (dose: 66.0 micrograms/kg/injection, schedule: Q01DX009 (ip), vehicle: saline + alcohol): 107 % of control
T/C (dose: 100.0 micrograms/kg/injection, schedule: Q01DX009 (ip), vehicle: saline with Tween-80): 96 % of control
T/C (dose: 100.0 micrograms/kg/injection, schedule: Q04DX003 (ip), vehicle: saline with Tween-80): 111 % of control
T/C (dose: 200.0 micrograms/kg/injection, schedule: Q01DX009 (ip), vehicle: saline with Tween-80): 95 % of control
T/C (dose: 200.0 micrograms/kg/injection, schedule: Q04DX003 (ip), vehicle: saline with Tween-80): 107 % of control

COC1/C=C/O[C@@]2(C)Oc3c(C)c(O)c4c(O)c(cc(O)c4c3C2=O)NC(=O)/C(C)=C\C=C\[C@H](C)C(O)[C@@H](C)[C@@H](O)[C@@H](C)[C@H](OC(C)=O)[C@@H]1C (stereo partly specified)
T/C [15]: 89 % of control
T/C [16]: 100 % of control
T/C [8]: 95 % of control

Cc1cccc(OCC(=O)O)c1
T/C [5]: 106 % of control
T/C [6]: 93 % of control
T/C [7]: 86 % of control

O=C(Nc1ccc(F)cc1)Nc1cccc2ccccc12
T/C [14]: 97 % of control
T/C [17]: 94 % of control

Cc1cc(NS(=O)(=O)c2ccc(N=Nc3cc(N=Nc4ccc(S(=O)(=O)Nc5cc(C)nc(C)n5)cc4)c4c(NC(=O)C(Cl)Cl)cccc4c3OC(=O)C(Cl)Cl)cc2)nc(C)n1 (tested in a mixture with another compound)
T/C (dose: 12.5 mg/kg/injection, schedule: Q01DX009 (ip), vehicle: suspension in saline): 98 % of control
T/C [1]: 95 % of control
T/C [2]: 97 % of control
T/C [3]: 95 % of control
T/C [4]: 93 % of control
T/C (dose: 400.0 mg/kg/injection, schedule: Q01DX009 (ip), vehicle: suspension in saline): 87 % of control

CCOC(OCC)C(=O)NNC(C)C
T/C [18]: 105 % of control
T/C [19]: 111 % of control
T/C [9]: 100 % of control

Cc1ccc(S(=O)(=O)N=N/C=C2/C=CC=CN2O)cc1
T/C [12]: 108 % of control
T/C [13]: 114 % of control
T/C [14]: 115 % of control

CC(=O)C1=C(C)NC(C)=C(C(C)=O)C1C
T/C [15]: 100 % of control
T/C [16]: 95 % of control
T/C [8]: 102 % of control

C#CCOCC(O)CCl (stereo unspecified)
T/C [20]: 94 % of control
T/C [9]: 105 % of control
T/C [16]: 95 % of control
T/C [10]: 89 % of control

O=[N+]([O-])/C(=C/c1ccccc1)c1ccccc1
T/C [5]: 104 % of control
T/C [6]: 95 % of control
T/C [7]: 112 % of control

CCCCCCCCCCCCCCCCCC(=O)NNCCO
T/C [15]: 86 % of control

CCCCCCCCCCCCSC1=CC(=O)C(OC)=C(OC)C1=O
T/C (dose: 6.25 mg/kg/injection, schedule: Q01DX030 (ip), vehicle: saline with Tween-80): 99 % of control
T/C (dose: 12.5 mg/kg/injection, schedule: Q01DX030 (ip), vehicle: saline with Tween-80): 95 % of control
T/C (dose: 25.0 mg/kg/injection, schedule: Q01DX030 (ip), vehicle: saline with Tween-80): 91 % of control

CCCCCCCCCCCCCCCC(=O)NNC(C)C
T/C [12]: 96 % of control
T/C [13]: 90 % of control
T/C [14]: 86 % of control

CN1C(=O)CC2(CCN(CCCC(=O)c3ccc(F)cc3)CC2)C1=O
T/C [5]: 99 % of control
T/C [6]: 109 % of control
T/C [7]: 104 % of control
T/C [15]: 95 % of control

Cc1ccc(NC(=O)COc2cc(Cl)c(Cl)cc2Cl)c([N+](=O)[O-])c1
T/C [14]: 93 % of control
T/C [17]: 100 % of control

CNCCCN1c2ccccc2CCc2ccccc21
T/C (dose: 3.12 mg/kg/injection, schedule: Q01DX009 (ip), vehicle: saline): 105 % of control
T/C (dose: 6.25 mg/kg/injection, schedule: Q01DX009 (ip), vehicle: Klucel (hydroxypropylcellulose) (HPC)): 106 % of control
T/C [18]: 96 % of control
T/C (dose: 12.5 mg/kg/injection, schedule: Q01DX009 (ip), vehicle: Klucel (hydroxypropylcellulose) (HPC)): 101 % of control
T/C [19]: 102 % of control
T/C [12]: 100 % of control
T/C [20]: 87 % of control
T/C [13]: 86 % of control
T/C [9]: 101 % of control

NC(=O)c1ncn2c(=O)n(CCCl)nnc12
T/C [18]: 158 % of control
T/C [19]: 216 % of control
T/C [20]: 207 % of control
T/C [9]: 96 % of control

Cc1c2ccccc2c(C)c2c1ccc1ccccc12
T/C (dose: 2.0 mg/kg/injection, schedule: Q01DX009 (ip), vehicle: saline with Tween-80): 100 % of control
T/C (dose: 4.0 mg/kg/injection, schedule: Q01DX009 (ip), vehicle: saline with Tween-80): 108 % of control
T/C (dose: 16.0 mg/kg/injection, schedule: Q01DX009 (ip), vehicle: saline with Tween-80): 108 % of control
